Results: patent publication US7658916B2, “Methods of enhancing lysosomal storage disease therapy by modulation of cell surface receptor density” (Genzyme Corporation, priority 2002, dated 2010)
Like-named read-outs stand apart in the source and are kept apart here.

Columns and labels:
[1] = system: L6 myotubes; assay: Alpha-galactosidase uptake by L6 myotubes in vitro; type: cell-based, rat; conditions: 5 mM M6P; to the endogenous level
Procedure: Muscles are the major target tissues for enzyme replacement therapy of Pompe disease due to the lack of acid alpha-glucosidase. To determine if the M6P/IGF-II receptor-mediated lysosomal enzyme uptake pathway can be augmented by insulin/glucose, the effects of insulin/glucose were analyzed on induced muscle cells (myotubes) in vitro. L6 myoblasts (or induced myotubes) and Hep3B cells were cultured in 6-well dishes. Rat L6 myoblasts (ATCC# CRL-1458) were cultured at 37° C. under 5% CO2 in VitaCell DMEM media (ATCC# 30-2002) with 4 mM L-glutamine, 10% fetal bovine serum (Gibco #16000-044) and 1× penicillin/streptomycin. Once confluent, cells were switched to VitaCell DMEM plus 2% horse sera (Gibco# 26050-088) and 1× penicillin/streptomycin. Media were changed every 3 days and at day 9-10, myotubes could be observed as multinuclear tubes. About 30-40% of the myoblasts formed myotubes. Cells were used for uptake assay at day 10. Hep3B cells were grown in MEM-eagle (Gibco# 11960-044) with 10% FBS, 1×NEAA, 1× sodium pyruvate and 1× penicillin/streptomycin.
Before the uptake assay, the cells were washed once with PBS and once with DMEM minus glucose media (Gibco#11966-025), then the cells were starved in 1.5 ml of DMEM minus glucose media for 1 hour at 37° C. […]

[2] = system: Hep3B cells; assay: CEREZYME enzyme uptake by hepatocytes (Hep3B) in vitro; type: cell-based; conditions: dexamethasone treatment; result in words
Procedure: The rat alveolar macrophage cell line NR 8383 (ATCC# CRL-2192) were cultured in Kaighn's modified F12K nutrient mixture (Gibco# 21127-002) with 2 mM L-glutamine (Gibco# 25030-081), 15% heat-inactivated fetal bovine serum (FBS) (Gibco# 16000-044) and 1× penicillin/streptomycin. Most of the cells were attached to the dish, with some in suspension. Hep3B cells were grown in MEM-eagle (Gibco# 11960-044) with Earles salts and 10% FBS, 1× non-essential amino acid (NEAA), 1× sodium pyruvate and 1× penicillin/streptomycin. Human liver sinusoidal endothelial cells (LSECS) (ACBRI#-566) were purchased from Applied Cell Biology Research Institute through Cell Systems, Inc. Cells were cultured in CS-C Media (CSC# 4Z0-500) with additional 10% FBS. During passage, the culture dishes or flasks were treated with attachment factor solution (CSC# 4Z0-210). Prior to seeding, the purity of the LSECs was confirmed by immunostaining with anti-VOA Willebrand factor (data not shown). […]
(§1) The lysates were used for glucocerebrosidase assay in duplicate or triplicate with 4-MU-beta-glucoside (Sigma# M-3633) as substrate and with CEREZYME® enzyme as standard. Proteins were quantified using a MicroBCA protein assay kit (Pierce) with BSA as standard. […]

[3] = system: spleen and bone marrow tissues; assay: Glucocerebrosidase activity in rat spleen and bone marrow after CEREZYME enzyme injection; type: in vivo, Fisher rats; conditions: rats, 100 μg dexamethasone, 2.5 U CEREZYME; equals level of non-treated rats given 10 U
Procedure: To assess the effect of dexamethasone treatment on CEREZYME® enzyme uptake by liver macrophage (Kupffer cells) in vivo, Fisher rats (female, ˜130 g) were divided into four groups (n=3). The first and second groups of rats only received vehicle PBS without dexamethasone, and the third and fourth groups were treated with water-soluble dexamethasone sodium phosphate (American Reagent Laboratories Inc.) at 10 μg and 100 μg (diluted into 200 μl PBS) per rat through intraperitoneal injection. Four doses of dexamethasone were given over two consecutive days, one dose in early morning and one dose in late afternoon on each day. On the third day, CEREZYME® enzyme at 2.5 U per rat (˜18 U/kg) diluted in PBS was administrated into the second, third and fourth groups of rats through tail vein bolus injection. The first group was used as negative control.
Direct measurement of glucocerebrosidase activity in spleen, liver and bone marrow tissues after CEREZYME® enzyme uptake was also assessed in another set of experiments. Five groups of rats were used (n=3). The first four groups were treated in the same manner as described above, whereas the fifth group of rats was not treated with dexamethasone but received 10 U of CEREZYME® enzyme per rat and used as positive controls. […] The supernatants were saved and measured for glucocerebrosidase activity and normalized to protein content as described above.

[4] = system: spleen macrophages; assay: CEREZYME enzyme uptake in vivo by isolated rat spleen macrophages; design: species or system Fisher rats
Procedure: Quantitative analysis of the dexamethasone effects on CEREZYME® enzyme uptake in vivo was performed on macrophage cells isolated from spleens through the attachment method (Gessani S, 2000 #35). Fisher rats (female, 180-200 g) were used and divided into four groups. After dexamethasone (50 μg/rat) pretreatment and CEREZYME® enzyme (or unmodified glucocerebrosidase) injection, rat spleens were excised and cut into small pieces. The total spleen cells were released by pressing between two frosted cover slides, followed by washing with 15 ml of RPMI media containing 10% heat-inactivated FBS. Red blood cells were lysed with red blood cell lysis buffer (Sigma). The rest of the splenocytes were seeded in 150-mm tissue culture dishes and incubated at 37° C. for 1 hour for the attachment isolation of macrophages. 15 ml of media were added to five 150-mm tissue culture dishes as blanks for nonspecific protein binding. After removing the cells in suspension and washing the attached cells 5 times with PBS, the attached cells were lysed in KP buffer by scrapping and assayed for glucocerebrosidase activity and protein content. The average of protein content of the blank dishes was subtracted from each cell sample. For dose response of CEREZYME® enzyme to dexamethasone, rats pretreated with dexamethasone were injected with different doses of CEREZYME® enzyme as for the control groups without dexamethasone pretreatment. Attached cells (>90% spleen macrophages) were isolated for glucocerebrosidase assay as described above. […] The absolute enzyme activity, however, was ˜220% of the control without dexamethasone treatment (FIG. 4A). The dexamethasone effects were also tested at other CEREZYME® enzyme doses at 7 U/kg and 72 U/kg respectively, which are either below or above the saturation levels (Mistry, 1996 #10). As is shown in FIG. 4B, at both doses, the dexamethasone effects were about the same and increased CEREZYME® enzyme uptake to a similar level as with 18 U/kg of CEREZYME® enzyme, namely, about 3-fold increase after dosage correction. The absolute CEREZYME® enzyme activity was ˜250% of the control sample at 72 U/kg.

[5] = system: rat alveolar macrophage cell line NR 8383; assay: CEREZYME enzyme uptake by rat alveolar macrophage cells in vitro; type: cell-based
Procedure: The rat alveolar macrophage cell line NR 8383 (ATCC# CRL-2192) were cultured in Kaighn's modified F12K nutrient mixture (Gibco# 21127-002) with 2 mM L-glutamine (Gibco# 25030-081), 15% heat-inactivated fetal bovine serum (FBS) (Gibco# 16000-044) and 1× penicillin/streptomycin. Most of the cells were attached to the dish, with some in suspension. Hep3B cells were grown in MEM-eagle (Gibco# 11960-044) with Earles salts and 10% FBS, 1× non-essential amino acid (NEAA), 1× sodium pyruvate and 1× penicillin/streptomycin. Human liver sinusoidal endothelial cells (LSECS) (ACBRI#-566) were purchased from Applied Cell Biology Research Institute through Cell Systems, Inc. Cells were cultured in CS-C Media (CSC# 4Z0-500) with additional 10% FBS. During passage, the culture dishes or flasks were treated with attachment factor solution (CSC# 4Z0-210). Prior to seeding, the purity of the LSECs was confirmed by immunostaining with anti-VOA Willebrand factor (data not shown).
For dexamethasone or other drug treatment, the cells were incubated with the drugs under various conditions as indicated in each figure legend (FIGS. 1A-F). […]
as §1

[6] = system: mannose receptor; conditions: cited from earlier work
[7] = system: muscle tissues; conditions: mouse, in vivo
Procedure: (§2) To directly evaluate the effects of insulin/glucose on alpha-galactosidase uptake in vivo, normal (129 SV, 3-4 month, male) and Fabry mice (on 129SV background, 3-4 month, male) were used for uptake assays under different conditions.
(§3) Normal mice were fasted overnight from 5 p.m. to 9 a.m. next morning, and then divided into three groups. […] The second group directly received alpha-galactosidase injection (6 mg/kg) through tail vein as bolus injection; the third group was first gavaged with 0.5 ml of 50% glucose followed by subcutaneous injection of insulin (0.25 U) on the upper back 10 minutes later, after another 45 minutes, alpha-galactosidase was injected as for the second group. Two hours after alpha-galactosidase injection, different tissues (heart, diaphragm, tongue, muscle gastrocnemius, muscle vastus laterus, muscle paraspinal) were collected and assayed for alpha-galactosidase activity after homogenization in alpha-galactosidase assay buffer plus 1% of triton and 1× protease inhibitor cocktail.
Here, 4 groups of Fabry mice were used and similarly treated as for the normal mice. […]

[8] = system: muscle tissues; design: species or system normal mice (129 SV); conditions: mouse, in vivo, 6 mg/kg
Procedure: as §2, §3

[9] = system: asialoglycoprotein receptors (ASGPR); conditions: cited from earlier work

Molecule: O=P(O)(O)OC[C@H]1OC(O)[C@@H](O)[C@@H](O)[C@@H]1O (stereo partly drawn) [M6P]
- inhibition of alpha-galactosidase uptake by myotubes [1]: entire alpha-galactosidase uptake can be inhibited

Molecule: C[C@@H]1C[C@H]2[C@@H]3CCC4=CC(=O)C=C[C@]4(C)[C@@]3(F)[C@@H](O)C[C@]2(C)[C@@]1(O)C(=O)CO [dexamethasone]
- effect on CEREZYME enzyme uptake by hepatocytes [2]: did not significantly enhance
- increase of total glucocerebrosidase activity in spleen [3]: 4 fold
- increase in CEREZYME enzyme uptake by spleen macrophages after dosage correction ([4]; CEREZYME 7 U/kg and 72 U/kg): about 3 fold
- absolute enzyme activity in spleen macrophages, % of control without dexamethasone ([4]; CEREZYME 18 U/kg): ~220%
- absolute CEREZYME enzyme activity in spleen macrophages, % of control sample ([4]; CEREZYME 72 U/kg): ~250%
- increase in CEREZYME enzyme uptake by spleen macrophages after normalizing the dose contribution ([4]; dexamethasone 50 μg/rat, CEREZYME 18 U/kg): at least 3 fold
- increase of CEREZYME enzyme uptake by rat alveolar macrophage cells ([5]; after two days, separate experiment): 250-350%

Molecule: prostaglandin E
- enhancement of mannose receptor cell surface expression on macrophages [6]: 4-6 fold

Molecule: alpha-galactosidase: recombinant human alpha-galactosidase, used as a model M6P-bearing lysosomal enzyme
- alpha-galactosidase activity in tissues relative to wildtype tissues [7]: about similar levels
- increase in alpha-galactosidase activity in heart over wildtype tissue [7]: more than 10 fold
- alpha-galactosidase activity in muscle tissues after injection alone [8]: increased its activity in all the muscle tissues

Molecule: Interferon alpha
- inhibition of binding and uptake of asialoglycoproteins ([9]; after 3-6 hour treatment): 50%
- inhibition of binding and uptake of asialoglycoproteins ([9]; after 24 hour treatment): ~100%

B1: mouse interferon-gamma: mouse interferon-γ, species-specific down-regulator of mannose receptor expression on macrophage cells (protein, UniProt P01580 23-155, looked up)
Interferon gamma: HGTVIESLESLNNYFNSSGIDVEEKSLFLDIWRNWQKDGDMKILQSQIISFYLRLFEVLKDNQAISNNISVIESHLITTFFSNSKAKKDAFMSIAKFEVNNPQVQRQAFNELIRVVHQLLPESSLRKRKRSRC
- effect on CEREZYME enzyme uptake by macrophage cells ([5]; result in words): did not enhance or inhibit

B2: interleukin-4: cytokine shown to enhance mannose receptor cell surface expression on macrophages (protein, UniProt P05112 25-153, looked up)
Interleukin-4: HKCDITLQEIIKTLNSLTEQKTLCTELTVTDIFAASKNTTEKETFCRAATVLRQFYSHHEKDTRCLGATAQQFHRHKQLIRFLKRLDRNLWGLAGLNSCPVKEANQSTLENFLERLKTIMREKYSKCSS
- enhancement of mannose receptor cell surface expression on macrophages [6]: 10-15 fold

B3: interferon-gamma: cytokine that down-regulates mannose receptors and asialoglycoprotein receptors (protein, UniProt P01579 24-161, looked up)
Interferon gamma: QDPYVKEAENLKKYFNAGHSDVADNGTLFLGILKNWKEESDRKIMQSQIVSFYFKLFKNFKDDQSIQKSVETIKEDMNVKFFNSNKKKRDDFEKLTNYSVTDLNVQRKAIHELIQVMAELSPAAKTGKRKRSQMLFRG
- inhibition of binding and uptake of asialoglycoproteins ([9]; after 3-6 hour treatment): 50%
- inhibition of binding and uptake of asialoglycoproteins ([9]; after 24 hour treatment): ~100%
